Assays:
[1] = test system: MDA-MB-483, HBL-100, Colo38 cells; assay: complement activation (iC3b deposition), flow cytometry, cell lines negative for membrane-bound VEGF; type: cell-based, human; conditions: tumor cell lines negative for membrane-bound VEGF, mouse serum as complement source
Procedure: Next, the ability of anti-VEGF mAb to bind surface-bound VEGF and activate complement, which leads to iC3b deposition, was examined. SKOV-3 cells were mixed with anti-VEGF mAb in the presence of a 1:4 dilution of mouse serum (complement source). For every one million tumor cells, a 100 μL volume of diluted mouse serum containing 10 μg/mL working dilution of anti-VEGF mAb was used. Tumor cells were mixed and incubated at 37° C. for 30 min. The cells were washed in ice cold flow cytometry staining buffer and the cell pellet was resuspended in […] diluted detecting antibody. The cells were incubated on ice for 30 min. and washed twice. Propidium iodide was used to exclude dead cells. The results of cell lines MDA-MB-483, HBL-100, SKOV-3 and Colo38 are shown in histograms 26, 28, 30 and 32 of FIG. 1C, respectively. Cells incubated with anti-VEGF mAb in the presence of complement and stained with anti-mouse iC3b-FITC mAb are represented by bold lines. Controls included cells incubated with mouse complement (dotted line) or without mouse complement (filled gray) and then stained with anti-mouse iC3b-FITC mAb.

SKOV-3 cells = type: cell-based, human
Procedure: As described above, β-glucan functions with anti-tumor antibodies to activate complement receptor 3 (CR3) and recruit neutrophils that mediate CR3 (iC3b-receptor)-dependent cytotoxicity of tumors coated with iC3b. […] SKOV-3 cells were incubated with anti-VEGF mAb or anti-Her-2/neu mAb in the presence of human complement. Cells were then washed and co-cultured with human neutrophils (E:T ratio=20:1) in the presence of soluble β-glucan. Cytotoxicity was calculated as in Li et al., J Immunol 177:1661-1669.

SKOV-3 tumors [2] = assay: SKOV-3 xenograft in ICR SCID mice, i.v. therapy for 4 weeks (FIG. 3); type: in vivo, mouse; conditions: 1.2 mg β-glucan twice weekly, 0.2 mg bevacizumab every third day, i.v. 4 weeks; start 300 mm^3
From the text: After SKOV-3 cell s.c. implantation, tumors were allowed to grow for over 17 days until they were 300 mm^3. […] Mice were sacrificed when the tumors reached 15 mm in diameter.

SKOV-3 tumors [3] = assay: SKOV-3 xenograft model in ICR SCID mice (FIG. 4A, 4B); type: in vivo, mouse
From the text: (§1) Additional evidence was gathered to show efficacy of in vivo therapy. ICR SCID mice implanted with SKOV-3 cells were compared to ICR SCID mice implanted with Colo38 cells as a control. […] Most of these tumors still retained their sizes before therapy. More importantly, 86% of these mice achieved long-term survival compared with 43% of tumor-bearing mice treated with anti-VEGF mAb only (FIG. 4B).

Colo38 tumors = assay: Colo38 xenograft model in ICR SCID mice (FIG. 4C); type: in vivo, mouse; conditions: Colo38 xenograft (membrane-bound VEGF negative)
From the text: as §1

SKOV-3 tumors [4] = assay: immunohistochemistry of tumor sections: iC3b deposition and neutrophil infiltration (FIG. 5); type: in vivo, mouse; conditions: for neutrophil infiltration in tumors: anti-Gr-1-PE staining of tumor sections; for iC3b deposition in tumors: anti-iC3b-FITC staining of tumor sections
From the text: Interaction between the complement activation product iC3b and the I-domain of CR3 provides the first signal for CR3 priming. Engagement of β-glucan with the lectin-like domain of CR3 is additionally required for the full activation of CR3. The dual ligation of CR3 leads to neutrophil CR3-dependent cellular cytotoxicity (Li et al., J Immunol 177:1661-1669). Neutrophil trafficking within tumors is also critical for successful combined β-glucan with anti-tumor mAb therapy (Allendorf et al., J Immunol 174:7050-7056). Therefore, immunohistochemistry studies were carried out to examine complement activation and neutrophil infiltration within tumors after treatment with different regimens.
First, the tumor sections from four groups were stained with an anti-iC3b-FITC and anti-VEGF-PE mAbs. […] Second, the tumor sections were stained with anti-Gr-1-PE mAb to detect neutrophil infiltration.

SKOV-3 tumors [5] = assay: tumor blood vessel development, anti-CD31 staining of tumor sections (FIG. 6); type: in vivo, mouse; conditions: anti-CD31-biotin staining, compared to PBS or β-glucan alone
From the text: To observe tumor blood vessel development after anti-VEGF mAb therapy, the tumor sections were stained with anti-CD31-biotin mAb.

| Substance | complement activation (iC3b deposition) [1] | cytotoxicity (SKOV-3 cells) | tumor size reached (SKOV-3 tumors [2]) | mice achieving long-term survival (SKOV-3 tumors [3]) | tumor burden (SKOV-3 tumors [3]) | tumor burden (Colo38 tumors) | neutrophil infiltration in tumors (SKOV-3 tumors [4]) | iC3b deposition in tumors (SKOV-3 tumors [4]) | tumor microvessel density (SKOV-3 tumors [5]) |
| --- | --- | --- | --- | --- | --- | --- | --- | --- | --- |
| bevacizumab | negative for complement activation | 0.2% | 800±250 mm^3 | 43% | significantly reduced tumor burden | significantly reduced tumor burden | significant neutrophil infiltration | massive iC3b deposition | decreased tumor microvessel density |
| poly-(1-6)-β-D-glucopyranosyl-(1-3)-β-D-glucopyranose [β-glucan] | – | – | 1500±500 mm^3 | – | did not show any significant tumor regression | – | paucity of iC3b deposition and neutrophil infiltration | no iC3b deposition | – |

Reference: US20090074761A1, “Therapeutic beta-glucan combinations” (priority 2007, published 2009)
